From patent US20100227858A1, “TRISUBSTITUTED PYRIMIDINE DERIVATIVES FOR THE TREATMENT OF PROLIFERATIVE DISEASES” (ASTRAZENECA AB, priority 2007, published 2010)

Target: recombinant mTOR (Homo sapiens, UniProt P42345)
Assay: In vitro mTOR kinase assay, Test (a)(i) (AlphaScreen)
Type: biochemical
Details: enzyme assay; values may represent the average of two or more measurements; read-out: Test (a)(i) IC50
Procedure: (a)(i) In Vitro mTOR Kinase Assay
The HEK293 FLAG-tagged mTOR (1362-2549) stable cell line was routinely maintained at 37° C. with 5% CO2 up to a confluency of 70-90% in Dulbecco's modified Eagle's growth medium (DMEM; Invitrogen Limited, Paisley, UK Catalogue No. 41966-029) containing 10% heat-inactivated foetal calf serum (FCS; Sigma, Poole, Dorset, UK, Catalogue No. F0392), 1% L-glutamine (Gibco, Catalogue No. 25030-024) and 2 mg/ml Geneticin (G418 sulfate; Invitrogen Limited, UK Catalogue No. 10131-027). Following expression in the mammalian HEK293 cell line, expressed protein was purified using the FLAG epitope tag using standard purification techniques.
A 30 μl mixture of recombinant purified mTOR enzyme, 1 μM biotinylated peptide substrate (Biotin-Ahx-[…]NH2; Bachem UK Ltd), ATP (20 μM) and a buffer solution [comprising Tris-HCl pH7.4 buffer (50 mM), EGTA (0.1 mM), bovine serum albumin (0.5 mg/mL), DTT (1.25 mM) and manganese chloride (10 mM)] was agitated at room temperature for 90 minutes.
These assay solutions were incubated for 2 hours at room temperature.
Phosphorylated biotinylated peptide is formed in situ as a result of mTOR mediated phosphorylation. The phosphorylated biotinylated peptide that is associated with AlphaScreen Streptavidin donor beads forms a complex with the p70 S6 Kinase (T389) 1A5 Monoclonal Antibody that is associated with Alphascreen Protein A acceptor beads. […] Accordingly, the presence of mTOR kinase activity results in an assay signal. In the presence of an mTOR kinase inhibitor, signal strength is reduced.

Sequence of recombinant mTOR (P42345 1362-2549): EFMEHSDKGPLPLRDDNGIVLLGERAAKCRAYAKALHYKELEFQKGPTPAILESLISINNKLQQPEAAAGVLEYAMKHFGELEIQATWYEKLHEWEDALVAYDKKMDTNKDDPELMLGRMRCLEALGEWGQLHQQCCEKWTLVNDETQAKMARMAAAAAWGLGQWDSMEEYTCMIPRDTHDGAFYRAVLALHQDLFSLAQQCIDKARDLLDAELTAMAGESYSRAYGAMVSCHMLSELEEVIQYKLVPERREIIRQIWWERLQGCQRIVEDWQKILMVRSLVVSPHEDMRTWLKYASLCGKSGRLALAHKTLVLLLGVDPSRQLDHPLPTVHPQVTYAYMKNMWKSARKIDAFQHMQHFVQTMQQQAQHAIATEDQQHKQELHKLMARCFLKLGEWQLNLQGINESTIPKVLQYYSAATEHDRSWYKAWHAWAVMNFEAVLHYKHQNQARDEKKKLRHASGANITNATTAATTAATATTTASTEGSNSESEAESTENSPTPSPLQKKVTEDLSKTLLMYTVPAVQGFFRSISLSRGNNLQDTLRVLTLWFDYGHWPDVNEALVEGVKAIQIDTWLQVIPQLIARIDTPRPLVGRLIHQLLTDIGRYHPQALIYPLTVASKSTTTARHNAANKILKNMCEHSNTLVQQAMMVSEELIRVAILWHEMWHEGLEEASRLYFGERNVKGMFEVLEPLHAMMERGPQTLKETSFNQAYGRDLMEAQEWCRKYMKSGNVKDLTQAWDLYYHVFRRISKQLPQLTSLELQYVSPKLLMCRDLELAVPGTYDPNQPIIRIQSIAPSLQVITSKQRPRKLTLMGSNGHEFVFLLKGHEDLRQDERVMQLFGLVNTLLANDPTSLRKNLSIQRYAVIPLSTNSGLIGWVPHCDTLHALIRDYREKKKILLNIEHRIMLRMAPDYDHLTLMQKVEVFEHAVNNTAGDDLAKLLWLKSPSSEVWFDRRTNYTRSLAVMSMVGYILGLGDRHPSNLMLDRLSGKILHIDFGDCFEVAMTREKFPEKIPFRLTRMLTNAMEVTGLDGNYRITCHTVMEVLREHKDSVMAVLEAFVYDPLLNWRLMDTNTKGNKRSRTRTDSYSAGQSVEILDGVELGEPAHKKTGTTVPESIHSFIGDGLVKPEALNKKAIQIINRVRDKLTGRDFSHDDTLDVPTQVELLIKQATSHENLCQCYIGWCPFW

| IC50 [nM] | SMILES |
| --- | --- |
| 236 | COc1ccc(C(=O)Nc2cc(N3CCOC[C@@H]3C)nc(N3CCOC[C@@H]3C)n2)cc1C(F)(F)F [Example 2, N-[2,6-Bis[(3S)-3-methylmorpholin-4-yl]pyrimidin-4-yl]-4-methoxy-3-(trifluoromethyl)benzamide] |
| 234 | COc1cccc(C(=O)Nc2cc(N3CCOC[C@@H]3C)nc(N3CCOC[C@@H]3C)n2)c1 [Example 3, N-[2,6-Bis[(3S)-3-methylmorpholin-4-yl]pyrimidin-4-yl]-3-methoxy-benzamide] |
| 894 | COc1ccccc1C(=O)Nc1cc(N2CCOC[C@@H]2C)nc(N2CCOC[C@@H]2C)n1 [Example 9, N-[2,6-Bis[(3S)-3-methylmorpholin-4-yl]pyrimidin-4-yl]-2-methoxy-benzamide] |
| 26400 | CC(=O)Nc1cc(C(=O)Nc2cc(N3CCOC[C@@H]3C)nc(N3CCOC[C@@H]3C)n2)ccn1 [Example 10, 2-Acetamido-N-[2,6-bis[(3S)-3-methylmorpholin-4-yl]pyrimidin-4-yl]pyridine-4-carboxamide] |
| 3580 | COc1ccc(C(=O)Nc2cc(N3CCOC[C@@H]3C)nc(N3CCOC[C@@H]3C)n2)cc1F [Example 11, N-[2,6-Bis[(3S)-3-methylmorpholin-4-yl]pyrimidin-4-yl]-3-fluoro-4-methoxy-benzamide] |
| 4000 | COc1cc(C(=O)Nc2nc(N3CCOC[C@@H]3C)cc(N3CCOC[C@@H]3C)n2)ccn1 [Example 12, N-[4,6-Bis[(3S)-3-methylmorpholin-4-yl]pyrimidin-2-yl]-2-methoxy-pyridine-4-carboxamide] |
| 886 | COc1ccccc1C(=O)Nc1nc(N2CCOC[C@@H]2C)cc(N2CCOC[C@@H]2C)n1 [Example 14, N-[4,6-Bis[(3S)-3-methylmorpholin-4-yl]pyrimidin-2-yl]-2-methoxy-benzamide] |
| 9550 | CC(=O)Nc1cc(C(=O)Nc2nc(N3CCOC[C@@H]3C)cc(N3CCOC[C@@H]3C)n2)ccn1 [Example 15, 2-Acetamido-N-[4,6-bis[(3S)-3-methylmorpholin-4-yl]pyrimidin-2-yl]pyridine-4-carboxamide] |
| 1120 | C[C@H]1COCCN1c1cc(N2CCOC[C@@H]2C)nc(NC(=O)c2ccc(NC(=O)Nc3ccccc3)cc2)n1 [Example 18, N-[4,6-Bis[(3S)-3-methylmorpholin-4-yl]pyrimidin-2-yl]-4-(phenylcarbamoylamino)benzamide] |
| 181 | COc1ccc(C(=O)Nc2cc(N3CCOC[C@@H]3C)nc(N3CCOC[C@@H]3C)n2)cc1 [Example 19, N-[2,6-Bis[(3S)-3-methylmorpholin-4-yl]pyrimidin-4-yl]-4-methoxy-benzamide] |
| 1700 | C[C@H]1COCCN1c1cc(CS(C)(=O)=O)nc(N2CCOCC2)n1 [Example 22, 4-[(3S)-3-methylmorpholin-4-yl]-6-(methylsulfonylmethyl)-2-morpholin-4-yl-pyrimidine] |
| 303 | C[C@H]1COCCN1c1cc(CS(C)(=O)=O)nc(-c2ccc3[nH]ccc3c2)n1 [Example 24] |
| 626 | CC(C)S(=O)(=O)Cc1cc(N2CCOC[C@H]2C)nc(-c2ccc3[nH]ccc3c2)n1 [Example 28, 5-[4-[(3R)-3-methylmorphlin-4-yl]-6-(propan-2-ylsulfonylmethyl)pyrimidin-2-yl]-1H-indole] |
| 351 | CCS(=O)(=O)Cc1cc(N2CCOC[C@H]2C)nc(-c2ccc3[nH]ccc3c2)n1 [Example 29, 5-[4-(ethylsulfonylmethyl)-6-[(3R)-3-methylmorpholin-4-yl]pyrimidin-2-yl]-1H-indole] |
| 897 | C[C@H]1COCCN1c1cc(CS(C)(=O)=O)nc(Nc2cc[nH]n2)n1 [Example 30, 4-[(3S)-3-Methylmorpholin-4-yl]-6-(methylsulfonylmethyl)-N-(1H-pyrazol-3-yl)pyrimidin-2-amine] |
| 573 | C[C@H]1COCCN1c1cc(CS(C)(=O)=O)nc(-c2cnc(-c3cn[nH]c3)s2)n1 [Example 34, 4-[(3S)-3-Methylmorpholin-4-yl]-6-(methylsulfonylmethyl)-2-[2-(1H-pyrazol-4-yl)-1,3-thiazol-5-yl]pyrimidine] |

The next lines start with the compound.

| SMILES | IC50 [nM] |
| --- | --- |
| COc1ccc(C(=O)Nc2nc(N3CCOC[C@@H]3C)cc(N3CCOC[C@@H]3C)n2)cc1 [Example 1, N-[4,6-Bis[(3S)-3-methylmorpholin-4-yl]pyrimidin-2-yl]-4-methoxy-benzamide] | 4650 |
| COc1ccc(C(=O)Nc2nc(N3CCOC[C@@H]3C)cc(N3CCOC[C@@H]3C)n2)cc1C(F)(F)F [Example 4, N-[4,6-Bis[(3S)-3-methylmorpholin-4-yl]pyrimidin-2-yl]-4-methoxy-3-(trifluoromethyl)benzamide] | 442 |
| COc1cccc(C(=O)Nc2nc(N3CCOC[C@@H]3C)cc(N3CCOC[C@@H]3C)n2)c1 [Example 5, N-[4,6-Bis[(3S)-3-methylmorpholin-4-yl]pyrimidin-2-yl]-3-methoxy-benzamide] | 364 |
| COc1ccc(C(=O)Nc2nc(N3CCOC[C@@H]3C)cc(N3CCOC[C@@H]3C)n2)cn1 [Example 6, N-[4,6-Bis[(3S)-3-methylmorpholin-4-yl]pyrimidin-2-yl]-6-methoxy-pyridine-3-carboxamide] | 2680 |
| COc1cc(C(=O)Nc2cc(N3CCOC[C@@H]3C)nc(N3CCOC[C@@H]3C)n2)ccn1 [Example 7, N-[2,6-Bis[(3S)-3-methylmorpholin-4-yl]pyrimidin-4-yl]-2-methoxy-pyridine-4-carboxamide] | 2840 |
| CC(=O)Nc1ccc(C(=O)Nc2cc(N3CCOC[C@@H]3C)nc(N3CCOC[C@@H]3C)n2)cn1 [Example 8, 6-Acetamido-N-[2,6-bis[(3S)-3-methylmorpholin-4-yl]pyrimidin-4-yl]pyridine-3-carboxamide] | 1780 |
| CC(=O)Nc1ccc(C(=O)Nc2nc(N3CCOC[C@@H]3C)cc(N3CCOC[C@@H]3C)n2)cn1 [Example 13, 6-Acetamido-N-[4,6-bis[(3S)-3-methylmorpholin-4-yl]pyrimidin-2-yl]pyridine-3-carboxamide] | 1580 |
| COc1ccc(C(=O)Nc2nc(N3CCOC[C@@H]3C)cc(N3CCOC[C@@H]3C)n2)cc1F [Example 16, N-[4,6-Bis[(3S)-3-methylmorpholin-4-yl]pyrimidin-2-yl]-3-fluoro-4-methoxy-benzamide] | 2470 |
| C[C@H]1COCCN1c1cc(NC(=O)c2ccc(NC(=O)Nc3ccccc3)cc2)nc(N2CCOC[C@@H]2C)n1 [Example 17, N-[2,6-Bis[(3S)-3-methylmorpholin-4-yl]pyrimidin-4-yl]-4-(phenylcarbamoylamino)benzamide] | 9390 |
| C[C@@H]1CN(c2nc(CS(C)(=O)=O)cc(N3CCOC[C@@H]3C)n2)C[C@H](C)O1 [Example 20, 2-[(2R,6S)-2,6-Dimethylmorpholin-4-yl]-4-[(3S)-3-methylmorpholin-4-yl]-6-(methylsulfonylmethyl)pyrimidine] | 1650 |
| C[C@H]1COCCN1c1cc(CS(C)(=O)=O)nc(N2CCCC(O)C2)n1 (stereo partly drawn) [Example 21, 1-[4-[(3S)-3-Methylmorpholin-4-yl]-6-(methylsulfonylmethyl)pyrimidin-2-yl]piperidin-3-ol] | 2300 |
| C[C@H]1COCCN1c1cc(CS(C)(=O)=O)nc(-c2cnc3[nH]ccc3c2)n1 [Example 23, 3-[4-[(3S)-3-Methylmorpholin-4-yl]-6-(methylsulfonylmethyl)pyrimidin-2-yl]-5,7-diazabicyclo[4.3.0]nona-1,3,5,8-tetraene] | 37.7 |
| C[C@@H]1COCCN1c1cc(CS(C)(=O)=O)nc(-c2ccc3[nH]ccc3c2)n1 [Example 25, 5-[4-[(3R)-3-methylmorpholin-4-yl]-6-(methylsulfonylmethyl)pyrimidin-2-yl]-1H-indole] | 385 |
| CCC(C)S(=O)(=O)Cc1cc(N2CCOC[C@@H]2C)nc(-c2ccc3[nH]ccc3c2)n1 (stereo partly drawn) [Example 26, 5-[4-(Butan-2-ylsulfonylmethyl)-6-[(3S)-3-methylmorpholin-4-yl]pyrimidin-2-yl]-1H-indole] | 1380 |
| CCC(C)[S+]([O-])Cc1cc(N2CCOC[C@H]2C)nc(-c2ccc3[nH]ccc3c2)n1 (stereo partly drawn) [Example 27, 5-[4-(butan-2-ylsulfinylmethyl)-6-[(3R)-3-methylmorpholin-4-yl]pyrimidin-2-yl]-1H-indole] | 1170 |
| C[C@H]1COCCN1c1cc(CS(C)(=O)=O)nc(-c2ccc(-c3cn[nH]c3)cc2)n1 [Example 31, 4-[(3S)-3-Methylmorpholin-4-yl]-6-(methylsulfonylmethyl)-2-[4-(1H-pyrazol-4-yl)phenyl]pyrimidine] | 990 |
| C[C@H]1COCCN1c1cc(CS(C)(=O)=O)nc(-c2cccc(-c3cn[nH]c3)c2)n1 [Example 32, 4-[(3S)-3-Methylmorpholin-4-yl]-6-(methylsulfonylmethyl)-2-[3-(1H-pyrazol-4-yl)phenyl]pyrimidine] | 437 |
| C[C@H]1COCCN1c1cc(CS(C)(=O)=O)nc(-c2ccc3[nH]cc(C(N)=O)c3c2)n1 [Example 33, 5-[4-[(3S)-3-Methylmorpholin-4-yl]-6-(methylsulfonylmethyl)pyrimidin-2-yl]-1H-indole-3-carboxamide] | 154 |
